Here are results for 20 compounds from US5455248A, “Substituted 6,11-ethano-6,11-dihydrobenzo[b] quinolizinium salts, and compositions and method of use thereof” (Sterling Winthrop Inc., priority 1993, dated 1995).

For experiment [1], the target named is PCP recognition sites (PCP receptor), rat whole brain membranes. Description: [^3 H]TCP Radioreceptor Assay (internal screen). The class given is binding, Male Sprague-Dawley rats. The settings on record: for Ki / [^3 H]TCP (internal screen) Percent (%) inhibition @10 μM: [^3 H]TCP approx. 1 nM, room temperature 25 min; for Ki: mean of at least two separate determinations. On the procedure:
[^3 H]TCP binding to PCP recognition sites was performed as described by Vignon et al. Brain Research 1983, 280, 194-197. Male Sprague-Dawley rats were sacrificed by decapitation, and whole brains were homogenized in 10 volumes (wt/vol) of cold Tris-HCl buffer (50 mM, pH 7.7) using a Brinkmann Polytron (setting 6, 30 sec). The homogenate was centrifuged at 40,000×g for 10 min at 4° C. The supernatant was decanted, and the homogenization and centrifugation steps were repeated twice as described above. Following this, the pellet was resuspended in Tris-HCl (5 mM, pH 7.7) at a tissue concentration of 0.5-0.75 g/ml, and one ml aliquots were frozen at -70° C. until use. The binding characteristics for PCP recognition sites were not altered by the freezing of membrane suspensions.
On the day of the assay, membrane aliquots were thawed, resuspended in fresh 5 mM Tris-HCl buffer at a tissue concentration of 1 mg/ml, and stored on ice until use. Each assay tube contained 100 μl of [^3 H]TCP at a final concentration of approximately 1 nM, 100 μl of various concentrations of the compounds of interest, 500 μl of the tissue suspension and 300 μl of buffer to a final assay volume of 1 ml and a final protein concentration of 0.5 mg/tube. Non-specific binding was defined by addition of […]. All tubes were incubated at room temperature for 25 min before termination of the reaction by rapid filtration over Whatman GF/B glass fiber filters that had been presoaked in a solution of 0.5% polyethylenimine for at least 1 hr prior to use. Filters were washed with three 4 ml volumes of cold Tris buffer. Following addition of scintillation cocktail, the amount of bound radioactivity was determined by liquid scintillation spectrometry using a Beckman LS 5000TA liquid scintillation counter with an efficiency for tritium of approximately 55%. Inhibition constants (Ki values) were calculated using the EBDA/LIGAND program (McPherson, J. Pharmacol. Meth. 1985, 14, 213-228), purchased from Elsevier/Biosoft, Inc. Results are reported as Ki values which are expressed as the mean of at least two separate determinations, or as a percent (%) inhibition of binding at 10 μM.

In experiment [2] the test system is NMDA-induced neurotoxicity in cultured cortical neurons. Description: Antagonism of NMDA-induced Neurotoxicity in Cultured Neurons. The class given is cell-based, Swiss-Webster mice. The settings on record: 500 μM NMDA for 30 minutes, LDH activity after 24 hours. How it is done:
Pregnant, Swiss-Webster mice were obtained from Taconic Farms (Germantown, N.Y.) and sacrificed 16 days post conception. Fetuses were removed and placed in a sterile dish containing Hank's balanced salt solution (HBSS), pH 7.4. Brain cortices were dissected, meninges were removed, the tissue was minced and placed into a solution of HBSS containing 0.25% (w/v) trypsin at 37° C. for 15 minutes. Tissue was then triturated with a sterile pasteur pipet, diluted with minimal essential media (Gibco 330-1430), pH 7.4, supplemented with 10% horse serum, 10% fetal calf serum, 2 mM 1-glutamine, 21 mM d-glucose, 2.2 g/L sodium bicarbonate, 1000 U/ml penicillin, and 1,000 μg/ml streptomycin. Cells were plated onto Falcon primaria 96 well plates at a final density of 50,000 cells/well and incubated at 37° C. in the presence of 5% (v/v) carbon dioxide. After 5 days, plating media was replaced with maintenance media containing minimal essential media (Gibco 330-1430), pH 7.4, supplemented with 10% horse serum, […], 21 mM d-glucose, 2.2 g/1 sodium bicarbonate,1,000 U/ml penicillin, 1,000 μg/ml streptomycin, and 10 μM cytosine arabinoside. On days 7 and 10, media was replaced with maintenance media as above lacking the cytosine arabinoside. Experiments were conducted on day 13.
Day 13 cultured cortical neurons were washed twice with minimal essential media, pH 7.4 and then exposed for 30 minutes to 500 μM N-methyl-D-aspartic acid (NMDA) with or without varying concentrations of test agents. Dizocilpine (MK-801) at a final concentration of 10 μM MK-801 was routinely included as a positive control. MK-801 and test agents were prepared in minimal essential media supplemented with 21 mM d-glucose and 2.2 g/L sodium bicarbonate (MEM). After 30 minutes, media was replaced with MEM alone. Exposure of neurons to test agents was limited to the NMDA treatment period. Twenty-four hours after removal of NMDA, an aliquot of media from each well was removed for assessment of cell injury by determining lactate dehydrogenase (LDH) activity by the method of Wroblewski and LaDue Proc. Soc. […]

For experiment [3], the system named is PCP recognition sites (PCP receptor), whole rat forebrain membranes. Description: [^3 H]TCP Radioreceptor Assay (external screen). The settings on record: 25° C. for 60 minutes. The format is binding. How it is done: Representative compounds of the invention were also tested in an external [^3 H]TCP radioreceptor assay using the following protocol:
A procedure similar to that described above for the [^3 H]TCP radioreceptor assay (internal screen) was utilized except that the whole rat forebrain membranes were incubated at 25° C. for 60 minutes rather than at room temperature for 25 minutes, before termination of the reaction. The results are reported as a percent (%) inhibition of binding at 10 μM.

Turning to `CC1(C)C2c3ccccc3C([n+]3ccccc32)C1(C)C.[O-][Cl+3]([O-])([O-])[O-]` (stereo not shown) [Example 1, 6,11-ethano-12, 12, 13,13-tetramethyl-6,11-dihydrobenzo[b]quinolizinium perchlorate], the affinity in experiment [1], expressed as Ki, was 21.2 nM.

`CCOCC1(COCC)CC2c3ccccc3C1c1cccc[n+]12` (stereo not shown) [17(b), 12,12-diethoxymethyl-6,11-ethano-6,11-dihydrobenzo[b]quinolizinium chloride]: affinity in experiment [1] was put at a Ki of 353 nM.

For `C=C(C)C1(C)CC2c3ccccc3C1c1cccc[n+]12` (stereo not shown) [Example 5, 6,11-ethano-12-isopropenyl-12-methyl-6,11dihydrobenzo[b]quinolizinium chloride], the inhibition constant (Ki) (as a rule, the dissociation constant of the complex between target and ligand, obtained from inhibition or displacement) in experiment [1] was found to be 65.2 nM. Also, in experiment [2], half-maximal inhibition (IC50) required 2810 nM.

In the case of `C=C(C)C1(C)CC2(C)c3ccccc3C1c1cccc[n+]12.[O-][Cl+3]([O-])([O-])[O-]` (stereo not shown) [Example 12, 6,11-ethano-6-methyl-12-isopropenyl-12-methyl-6,11-dihydrobenzo[b]quinolizinium perchlorate], in experiment [1], the Ki was 69 nM.

As to `c1ccc2c(c1)C1CC3(CCC3)C2c2cccc[n+]21` (stereo not shown) [10(b), 6,11-ethano-12,12-(1'-spirocyclobutane)-6,11-dihydrobenzo[b]-quinoliziniumchloride], the Ki in experiment [1] worked out at 3110 nM.

In experiment [1], `C=C(C)C1(COC)CC2c3ccccc3C1c1cccc[n+]12.[O-][Cl+3]([O-])([O-])[O-]` (single isomer, unassigned) [Example 4, 6,11-ethano-12-isopropenyl-12-methoxymethyl-6,11-dihydrobenzo[b]quinolizinium perchlorate] showed an inhibitory constant (Ki) of 313 nM.

In turn, `C#CC1(C#C)CC2c3ccccc3C1c1cccc[n+]12` (stereo not shown) [18(b), 12,12-diethynyl-6,11-ethano-6,11-dihydrobenzo[b]quinolizinium hexafluorophosphate] showed an inhibition constant Ki in experiment [1] of 883 nM.

For `C=C(C)C1(C)CC2c3ccccc3C1c1cccc[n+]12.[O-][Cl+3]([O-])([O-])[O-]` (stereo not shown) [Example 20, 6,11-ethano-12-isopropenyl-12-methyl-6,11-dihydrobenzo[b]quinolizinium perchlorate], in experiment [1], the “binding to the PCP receptor (in words)” value is on record as “found to bind to the PCP receptor” and the Ki was determined as 45.7 nM. Besides, the “[^3 H]TCP (external screen) Percent inhibition (%) @10 μM” value in experiment [3] was 94%.

For `CC(C)(C)C1C2c3ccccc3C(C1C(C)(C)C)[n+]1ccccc12.F[P-](F)(F)(F)(F)F` (single isomer, unassigned) [Example 6, 6,11-ethano-12-tert-butyl13-tert-butyl-6,11-dihydrobenzo[b]quinolizinium hexafluorophosphate], in experiment [1], the “[^3 H]TCP (internal screen) Percent (%) inhibition @10 μM” value came to 44%.

`CC(C)(C)C1C2c3ccccc3C(C1C(C)(C)C)[n+]1ccccc12` (single isomer, unassigned) [Example 7, 6,11-ethano-12-tert-butyl-13-tert-butyl-6,11-dihydrobenzo[b]quinolizinium hexafluorophosphate] yielded a Ki in experiment [1] of 5090 nM.

For the compound “12-isopropylidene-13,13-dimethyl-6,11-ethano-6,11-dihydrobenzo[b]quinolizinium perchlorate (Formula I: R^1 =H; R^2 =R^3 =CH3 ; R^4 and R^5 together =isopropylidene; X^- =ClO4^-) and 12,12-dimethyl-13-isopropylidene-6,11-ethano-6,11-dihydrobenzo[b]quinolizinium perchlorate [Example 16]”, the inhibition constant (Ki) in experiment [1] came to 265 nM. This Ki lies about 19-fold lower than the previous one.

Compound `CC(C)C1(C(C)C)CC2c3ccccc3C1c1cccc[n+]12` (stereo not shown) [Example 19, 12,12-diisopropyl-6,11-dihydrobenzo[b]quinolizium hexafluorophosphate] gave an inhibitory constant (Ki) in experiment [1] of 6010 nM. This Ki lies about 23-fold higher than the previous one.

Take `C=C(C)C1(C)CC2c3ccccc3C1c1cccc[n+]12` (single isomer, unassigned) [Example 2, 6,11-ethano-12-isopropenyl-12-methyl-6,11-dihydrobenzo[b]quinolizinium bromide]: the affinity in experiment [1] corresponds to a Ki of 208 nM. For the same compound, the concentration for half-maximal inhibition (IC50) – broadly, the concentration at which inhibition is half-maximal – in experiment [2] (Mus musculus, Cortical neurone) came to 7300 nM.

For the compound `c1ccc2c(c1)C1CC(C3CC3)(C3CC3)C2c2cccc[n+]21` (stereo not shown) [Example 9, 6.11-ethano-12,12-dicyclopropyl-6,11-dihydrobenzo[b]quinolizinium chloride], in experiment [1], the inhibition constant Ki was found to be 103 nM. This lies in the sub-micromolar range.

`C=C(C)C1(C)CC2c3ccccc3C1c1cccc[n+]12` (stereo not shown) [Example 3, 6,11-ethano-12-isopropenyl-12-methyl-6,11-dihydrobenzo[b]quinolizinium bromide]: affinity in experiment [1] was put at a Ki of 191 nM. This compound also displayed an IC50 in experiment [2] of 5880 nM.

Turning to `C=CC1CC2c3ccccc3C1c1cccc[n+]12` (single isomer, unassigned) [Example 13(a), 6,11-ethano-12-ethylene-6,11-dihydrobenzo[b]quinolizinium bromide], the “[^3 H]TCP (internal screen) Percent (%) inhibition @10 μM” value in experiment [1] was 49%.

On to `CC(C)=CC1C2c3ccccc3C([n+]3ccccc32)C1(C)C` (stereo not shown) [Example 14, 6,11-ethano-12-(2,2-dimethyl)ethylene-13,13-dimethyl-6,11-dihydrobenzo[b]quinolizinium hexafluorophosphate], for which the affinity in experiment [1], expressed as Ki, was 3540 nM. In other words, the single-digit micromolar range.

In the case of `c1ccc2c(c1)C1CC3(C4CC5CC(C4)CC3C5)C2c2cccc[n+]21` (stereo not shown) [15(b), 6,11-ethano-12,12-(2'-spiro-adamantane)-6,11-dihydrobenzo[b]quinolizinium chloride], the inhibition constant (Ki) in experiment [1] came out at 5280 nM.

In the case of `[O-][Cl+3]([O-])([O-])[O-].c1ccc2c(c1)C1CC(C3CC3)(C3CC3)C2c2cccc[n+]21` (stereo not shown) [Example 8, 6,11-ethano-12,12-dicyclopropyl-6,11-dihydrobenzo[b]-quinolizinium perchlorate], affinity in experiment [1] was put at a Ki of 88.1 nM. This Ki lies about 60-fold lower than the previous one.

The compound `OCC1(CO)CC2c3ccccc3C1c1cccc[n+]12` (stereo not shown) [11(b), 6,11-ethano-12,12-dihydroxymethyl-6,11-dihydrobenzo[b]quinolizinium chloride] gave an inhibitory constant (Ki) in experiment [1] of 1950 nM.
